Test results from the NIST ThermoML archive (doi:10.1021/je100757w).

Experiment: xn = mol fraction of the nth substance listed
Conditions: for surface tension liquid-gas: Ring tensiometer; for mass density: 101.3 kPa, Liquid

COCCOCCOC [2,5,8-trioxanonane] + O
Conditions	mass density [kg/m3]	surface tension liquid-gas [mN/m]
298.15 K, x1 = 0.0047	–	49.27
298.15 K, x1 = 0.0141	–	44.11
298.15 K, x1 = 0.0188	1002.55	–
298.15 K, x1 = 0.0279	–	42.26
298.15 K, x1 = 0.0456	–	39.85
298.15 K, x1 = 0.0543	1006.8	–
298.15 K, x1 = 0.0874	–	35.99
298.15 K, x1 = 0.1184	–	31.62
298.15 K, x1 = 0.1289	1002.43	–
298.15 K, x1 = 0.1582	–	30.69
298.15 K, x1 = 0.1903	994.76	–
298.15 K, x1 = 0.2241	–	30.45
298.15 K, x1 = 0.3191	–	29.9
298.15 K, x1 = 0.3195	978.75	–
298.15 K, x1 = 0.4068	970.55	–
298.15 K, x1 = 0.4283	–	28.69
298.15 K, x1 = 0.4993	963.15	–
298.15 K, x1 = 0.5164	–	28.08
298.15 K, x1 = 0.621	955.66	–
298.15 K, x1 = 0.6493	–	27.9
298.15 K, x1 = 0.7181	950.74	–
298.15 K, x1 = 0.7841	–	26.77
298.15 K, x1 = 0.8097	946.27	–
298.15 K, x1 = 0.8737	–	26.29
298.15 K, x1 = 0.9099	942.33	–
298.15 K, x1 = 0.9228	–	25.69
298.15 K, x1 = 0.9551	940.97	–
298.15 K, x1 = 0.9704	–	25.19
298.15 K, x1 = 1	940.01	24.56
308.15 K, x1 = 0.0014	–	53.47
308.15 K, x1 = 0.0038	–	50.51
308.15 K, x1 = 0.0085	–	47.12
308.15 K, x1 = 0.0142	–	44.72
308.15 K, x1 = 0.0188	998.41	–
308.15 K, x1 = 0.0279	–	41.3
308.15 K, x1 = 0.0457	–	38.99
308.15 K, x1 = 0.0543	1001.43	–
308.15 K, x1 = 0.0875	–	33.65
308.15 K, x1 = 0.12	–	32.57
308.15 K, x1 = 0.1289	996.23	–
308.15 K, x1 = 0.1602	–	31.09
308.15 K, x1 = 0.1903	987.3	–
308.15 K, x1 = 0.2265	–	29.75
308.15 K, x1 = 0.3195	970.44	–
308.15 K, x1 = 0.3217	–	29.19
308.15 K, x1 = 0.4068	961.72	–
308.15 K, x1 = 0.4305	–	28.79
308.15 K, x1 = 0.4993	954.06	–
308.15 K, x1 = 0.5179	–	28.41
308.15 K, x1 = 0.621	945.87	–
308.15 K, x1 = 0.6498	–	28.3
308.15 K, x1 = 0.7181	940.7	–
308.15 K, x1 = 0.7831	–	27.7
308.15 K, x1 = 0.8097	936.34	–
308.15 K, x1 = 0.8744	–	27.58
308.15 K, x1 = 0.9099	932.39	–
308.15 K, x1 = 0.9165	–	27.54
308.15 K, x1 = 0.9551	931.05	–
308.15 K, x1 = 0.9645	–	27.43
308.15 K, x1 = 1	930.03	27.65
318.15 K, x1 = 0.0015	–	55.76
318.15 K, x1 = 0.0038	–	51.77
318.15 K, x1 = 0.0081	–	48.33
318.15 K, x1 = 0.0135	–	45.61
318.15 K, x1 = 0.0188	994.3	–
318.15 K, x1 = 0.0269	–	41.95
318.15 K, x1 = 0.0444	–	39.33
318.15 K, x1 = 0.0543	996.25	–
318.15 K, x1 = 0.0857	–	34.62
318.15 K, x1 = 0.1091	–	28.86
318.15 K, x1 = 0.1289	989.1	–
318.15 K, x1 = 0.156	–	26.65
318.15 K, x1 = 0.1903	979.79	–
318.15 K, x1 = 0.2194	–	25.34
318.15 K, x1 = 0.3174	–	24.45
318.15 K, x1 = 0.3195	961.72	–
318.15 K, x1 = 0.4068	952.75	–
318.15 K, x1 = 0.4248	–	24.26
318.15 K, x1 = 0.4993	944.64	–
318.15 K, x1 = 0.511	–	24.18
318.15 K, x1 = 0.621	936.5	–
318.15 K, x1 = 0.6513	–	23.87
318.15 K, x1 = 0.7181	931.28	–
318.15 K, x1 = 0.7915	–	23.64
318.15 K, x1 = 0.8097	926.76	–
318.15 K, x1 = 0.8844	–	23.5
318.15 K, x1 = 0.9099	922.58	–
318.15 K, x1 = 0.9137	–	23.48
318.15 K, x1 = 0.9547	–	23.46
318.15 K, x1 = 0.9551	921.12	–
318.15 K, x1 = 1	919.99	23.44

COCCOCCOCCOCCOC [2,5,8,11,14-pentaoxapentadecane] + O
Conditions	mass density [kg/m3]	surface tension liquid-gas [mN/m]
298.15 K, x1 = 0.0016	–	50.16
298.15 K, x1 = 0.002	–	48.89
298.15 K, x1 = 0.0026	–	47.04
298.15 K, x1 = 0.0031	–	46.37
298.15 K, x1 = 0.0092	–	43.11
298.15 K, x1 = 0.0142	1011.13	–
298.15 K, x1 = 0.0174	–	41.23
298.15 K, x1 = 0.0283	–	40.1
298.15 K, x1 = 0.057	–	39.54
298.15 K, x1 = 0.0746	–	38.88
298.15 K, x1 = 0.0747	1035.25	–
298.15 K, x1 = 0.1026	–	38.65
298.15 K, x1 = 0.1452	1036.72	–
298.15 K, x1 = 0.1497	–	37.66
298.15 K, x1 = 0.2264	–	36.29
298.15 K, x1 = 0.2309	1031.3	–
298.15 K, x1 = 0.2862	–	35.79
298.15 K, x1 = 0.2974	1026.41	–
298.15 K, x1 = 0.4065	1020.2	–
298.15 K, x1 = 0.4268	–	35.09
298.15 K, x1 = 0.5085	1016.34	–
298.15 K, x1 = 0.5414	–	34.92
298.15 K, x1 = 0.5863	1014.23	–
298.15 K, x1 = 0.6144	–	34.46
298.15 K, x1 = 0.6788	1012.16	–
298.15 K, x1 = 0.787	–	34.2
298.15 K, x1 = 0.8139	1009.47	–
298.15 K, x1 = 0.8286	–	34.19
298.15 K, x1 = 0.854	1008.76	–
298.15 K, x1 = 0.9196	–	33.91
298.15 K, x1 = 0.9569	1007.43	–
298.15 K, x1 = 1	1007.26	33.74
308.15 K, x1 = 0.0014	–	51
308.15 K, x1 = 0.0023	–	46.99
308.15 K, x1 = 0.0032	–	45.45
308.15 K, x1 = 0.004	–	44.21
308.15 K, x1 = 0.009	–	42.87
308.15 K, x1 = 0.0142	1006.56	–
308.15 K, x1 = 0.0175	–	39.9
308.15 K, x1 = 0.0275	–	39.08
308.15 K, x1 = 0.0539	–	38.34
308.15 K, x1 = 0.0715	–	37.36
308.15 K, x1 = 0.0747	1027.26	–
308.15 K, x1 = 0.099	–	37.28
308.15 K, x1 = 0.1452	1027.67	–
308.15 K, x1 = 0.1478	–	35.51
308.15 K, x1 = 0.2212	–	34.95
308.15 K, x1 = 0.2309	1022.01	–
308.15 K, x1 = 0.2974	1017.12	–
308.15 K, x1 = 0.3074	–	34.22
308.15 K, x1 = 0.4065	1010.92	–
308.15 K, x1 = 0.4252	–	33.85
308.15 K, x1 = 0.5085	1007.06	–
308.15 K, x1 = 0.5523	–	33.58
308.15 K, x1 = 0.5863	1004.92	–
308.15 K, x1 = 0.6404	–	33.32
308.15 K, x1 = 0.6788	1002.83	–
308.15 K, x1 = 0.7835	–	33.05
308.15 K, x1 = 0.8139	1000.17	–
308.15 K, x1 = 0.814	–	32.88
308.15 K, x1 = 0.854	999.47	–
308.15 K, x1 = 0.9479	–	32.64
308.15 K, x1 = 0.9569	998.16	–
308.15 K, x1 = 1	997.98	32.45
318.15 K, x1 = 0.0013	–	58.46
318.15 K, x1 = 0.0019	–	54.2
318.15 K, x1 = 0.0024	–	51.29
318.15 K, x1 = 0.0033	–	47.59
318.15 K, x1 = 0.0098	–	42.27
318.15 K, x1 = 0.0142	1001.29	–
318.15 K, x1 = 0.0187	–	40.41
318.15 K, x1 = 0.0314	–	40.39
318.15 K, x1 = 0.0584	–	38.25
318.15 K, x1 = 0.0747	1019.04	–
318.15 K, x1 = 0.0748	–	37.24
318.15 K, x1 = 0.1022	–	36.5
318.15 K, x1 = 0.1452	1018.51	–
318.15 K, x1 = 0.1482	–	35.37
318.15 K, x1 = 0.2219	–	33.81
318.15 K, x1 = 0.2309	1012.58	–
318.15 K, x1 = 0.2974	1007.72	–
318.15 K, x1 = 0.3152	–	33.3
318.15 K, x1 = 0.4065	1001.56	–
318.15 K, x1 = 0.4328	–	32.94
318.15 K, x1 = 0.5085	997.73	–
318.15 K, x1 = 0.5259	–	32.75
318.15 K, x1 = 0.5863	995.58	–
318.15 K, x1 = 0.5974	–	32.47
318.15 K, x1 = 0.6788	993.48	–
318.15 K, x1 = 0.7667	–	32.22
318.15 K, x1 = 0.8139	990.83	–
318.15 K, x1 = 0.8249	–	32.05
318.15 K, x1 = 0.854	990.15	–
318.15 K, x1 = 0.9324	–	31.94
318.15 K, x1 = 0.9569	988.89	–
318.15 K, x1 = 1	988.72	31.71
